Experimental data as given in the supplement of paper PMC10702517.
± gives the standard deviation.

How the values were obtained:
[1] = chemical recovery from spiked human plasma; higher = better extraction; settings: pooled human plasma
[2] = chemical recovery by SPE of plasma after PDMS sampling; higher = better extraction; settings: pooled human plasma, extraction method: HLB SPE of plasma after PES
[3] = chemical recovery into PDMS from spiked human plasma; higher = better extraction; settings: pooled human plasma, extraction method: PES with PDMS
[4] = extraction method: SPE only (HLB 96-well)
[5] = extraction method: SPE only (HLB 96-well), PES comparison experiment
[6] = extraction method: PES+SPE (3 d PDMS equilibration then HLB SPE)
[7] = extraction method: solvent precipitation (ACN + hexane)
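For chemical recovery by SPE of plasma after PDMS sampling in this document: over 400 spiked chemicals quantified by LC-HRMS or GC-HRMS via internal standard calibration, recovery relative to spike mix added to unspiked plasma extract to correct matrix effects.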

SMILES | chemical recovery [1, 4] | chemical recovery [1, 5] | chemical recovery by SPE of plasma ([2]; equilibration time (d): 1) | chemical recovery by SPE of plasma ([2]; equilibration time (d): 3) | chemical recovery by SPE of plasma ([2]; equilibration time (d): 6) | chemical recovery [1, 6] | chemical recovery [1, 7] | chemical recovery into PDMS ([3]; equilibration time (d): 3) | chemical recovery into PDMS ([3]; equilibration time (d): 6)
c1ccc2c(c1)ccc1ccccc12 [Phenanthrene] | 8.44 ± 0.76% | 20.8 ± 2.2% | 2.82 ± 2.2% | 2.33 ± 0.82% | 3.01 ± 1.1% |  |  |  | 
CCc1ccc(CCOc2ccc(CC3SC(=O)NC3=O)cc2)nc1 (stereo unspecified) [Pioglitazone] | 48.6 ± 3.3% | 42.9 ± 6% | 45.8 ± 9.5% | 49.1 ± 3% | 47 ± 6.1% | 42.9 ± 3.5% |  |  | 
C[C@]12C=CC(=O)C=C1CC[C@@H]1[C@@H]2[C@@H](O)C[C@@]2(C)[C@H]1CC[C@]2(O)C(=O)CO [Prednisolone] |  | 61.1 ± 7.2% |  | 48.4 ± 2.3% | 44.5 ± 1.3% |  |  |  | 
CC(CN1c2ccccc2Sc2ccccc21)N(C)C (stereo unspecified) [Promethazin] | 55.2 ± 14% | 43.8 ± 7.1% | 0.16 ± 0.11% | 0.172 ± 0.13% | 0.00932 ± 0.01% | 0.204 ± 0.12% | 74.2 ± 4.5% |  | 
CCCOc1nn(C(=O)NS(=O)(=O)c2ccccc2C(=O)OC)c(=O)n1C [Propoxycarbazone] | 31.4 ± 2.8% | 43.2 ± 6.2% | 27.1 ± 5.6% | 32 ± 2.5% | 29.4 ± 1.4% | 39.2 ± 4.4% | 75.6 ± 5.4% |  | 
COc1nc(C)nc(NC(=O)NS(=O)(=O)c2ccccc2CCC(F)(F)F)n1 [Prosulfuron] | 37.9 ± 4.5% | 42.7 ± 6.3% | 48.5 ± 11% | 50.6 ± 4.8% | 45.3 ± 5.2% | 44.3 ± 3.7% | 75.5 ± 0.94% |  | 
Cc1cnc2c(C(=O)O)c(Cl)ccc2c1 [Quinmerac] | 40.8 ± 3.5% | 52.2 ± 6.4% | 54.5 ± 9.6% | 61.1 ± 6.2% | 56.5 ± 1.8% | 43.6 ± 2.5% | 65.8 ± 4.1% |  | 
O=C(c1ccc(OCCN2CCCCC2)cc1)c1c(-c2ccc(O)cc2)sc2cc(O)ccc12 [Raloxifene] |  | 47.4 ± 8.5% | 41.3 ± 2.1% | 46.1 ± 2.4% | 39.8 ± 2.8% |  | 63.5 ± 3.5% |  | 
CC[C@H]1OC(=O)[C@H](C)[C@@H](O[C@H]2C[C@@](C)(OC)[C@@H](O)[C@H](C)O2)[C@H](C)[C@@H](O[C@@H]2O[C@H](C)C[C@H](N(C)C)[C@H]2O)[C@](C)(O)C[C@@H](C)/C(=N\OCOCCOC)[C@H](C)[C@@H](O)[C@]1(C)O [Roxithromycin] |  | 36.2 ± 4.7% | 28.8 ± 5.2% | 29.5 ± 4.3% | 26.9 ± 3.6% |  |  |  | 
O=C(O)c1ccccc1O [Salicylic acid] |  | 69.7 ± 4.9% | 61.1 ± 13% | 78.9 ± 5.7% | 59.8 ± 3.9% |  |  |  | 
CC(C)NCC(O)c1ccc(NS(C)(=O)=O)cc1 (stereo unspecified) [Sotalol] | 20.9 ± 5.4% |  |  | 21.5 ± 3.9% | 30.9 ± 12% |  | 75 ± 2.5% |  | 
CCCN(CC)CC1COC2(CCC(C(C)(C)C)CC2)O1 (stereo unspecified) [Spiroxamine] | 47.5 ± 0.85% | 43.7 ± 7.8% | 0.0924 ± 0.066% | 0.0829 ± 0.053% | 0.0434 ± 0.0086% | 0.223 ± 0.025% |  |  | 
COP(=O)(OC)C(O)C(Cl)(Cl)Cl (stereo unspecified) [Trichlorfon] | 33.1 ± 1.9% | 43.1 ± 8.1% | 30.8 ± 2.4% | 25.3 ± 0.61% | 18.2 ± 1.2% | 13.2 ± 1.2% | 0.0499 ± 0.086% |  | 

More lines, now with the values ahead:

chemical recovery [1, 4] | chemical recovery [1, 5] | chemical recovery by SPE of plasma ([2]; equilibration time (d): 1) | chemical recovery by SPE of plasma ([2]; equilibration time (d): 3) | chemical recovery by SPE of plasma ([2]; equilibration time (d): 6) | chemical recovery [1, 6] | chemical recovery [1, 7] | chemical recovery into PDMS ([3]; equilibration time (d): 3) | chemical recovery into PDMS ([3]; equilibration time (d): 6) | SMILES
30.1 ± 3.6% | 45.7 ± 3.6% | 49 ± 9.9% | 50.2 ± 5.5% | 48.5 ± 7.4% | 33.4 ± 3.4% |  |  |  | COc1cc(NS(=O)(=O)c2ccc(N)cc2)nc(OC)n1 [Sulfadimethoxine]
39.4 ± 8.3% | 38.5 ± 11% | 0.427 ± 0.08% | 0.167 ± 0.14% | 0.104 ± 0.056% | 0.265 ± 0.056% |  |  |  | CC/C(=C(\c1ccccc1)c1ccc(OCCN(C)C)cc1)c1ccccc1 [Tamoxifen]
 | 29.4 ± 10% |  | 30.4 ± 11% |  |  | 14.4 ± 1.4% |  |  | CC(C)(c1cc(Br)c(O)c(Br)c1)c1cc(Br)c(O)c(Br)c1 [Tetrabromobisphenol A]
2.67 ± 1.9% |  | 0.00668 ± 0.0083% |  |  | 0.105 ± 0.0078% |  |  |  | CCCCNc1ccc(C(=O)OCCN(C)C)cc1 [Tetracain]
 | 15.9 ± 4.4% |  | 47.9 ± 6.8% | 41.5 ± 14% |  |  |  |  | O=c1[nH]nc(C(F)(F)F)s1 [Thiadone]
43.8 ± 3.6% | 49.1 ± 3.4% | 50.8 ± 5.4% | 54 ± 2.9% | 50.9 ± 2.3% | 38.9 ± 4.2% | 73.1 ± 4.1% |  |  | Cc1cccc(Nc2ccncc2S(=O)(=O)NC(=O)NC(C)C)c1 [Torasemide]
 | 50.5 ± 3.2% | 55.2 ± 12% | 58.4 ± 5.8% | 54.9 ± 10% |  |  |  |  | C[C@]12C=CC(=O)C=C1CC[C@H]1[C@@H]3C[C@@H](O)[C@](O)(C(=O)CO)[C@@]3(C)C[C@H](O)[C@@]12F [Triamcinolone]
 | 33.9 ± 4.8% | 30.2 ± 3.2% | 35.1 ± 4.1% | 33 ± 2.3% |  |  |  |  | CC[C@H]1OC(=O)C[C@@H](O)[C@H](C)[C@@H](O[C@@H]2O[C@H](C)[C@@H](O[C@H]3C[C@@](C)(O)[C@@H](O)[C@H](C)O3)[C@H](N(C)C)[C@H]2O)[C@@H](CC=O)C[C@@H](C)C(=O)/C=C/C(C)=C/[C@@H]1CO[C@@H]1O[C@H](C)[C@@H](O)[C@@H](OC)[C@H]1OC [TylosinCH4O]
 | 35.1 ± 8.2% | 13.4 ± 2.1% | 7.22 ± 1.1% | 4.01 ± 0.43% |  |  |  |  | CCCc1nc(C)c2c(=O)nc(-c3cc(S(=O)(=O)N4CCN(CC)CC4)ccc3OCC)[nH]n12 [Vardenafil]
44.9 ± 2.1% | 56.6 ± 4.3% | 62.2 ± 10% | 66.6 ± 3.5% | 62.8 ± 4.6% | 50 ± 3.2% | 72.5 ± 6.1% |  |  | CC(=O)CC(c1ccccc1)c1c(O)c2ccccc2oc1=O (stereo unspecified) [Warfarin]
38.7 ± 2.6% | 41.5 ± 7.6% | 37.1 ± 6.7% | 34 ± 4.3% | 25.3 ± 2.6% | 22.9 ± 2.4% | 76 ± 9.8% |  |  | O=C1Cc2cc(CCN3CCN(c4nsc5ccccc45)CC3)c(Cl)cc2N1 [Ziprasidone]
3.93 ± 0.065% | 3.65 ± 1.4% |  |  | 0.481 ± 2.9% |  |  |  |  | C(=C/c1ccccc1)/c1ccccc1 [cis-Stilbene]
46.9 ± 14% | 45.2 ± 4.9% |  | 36.3 ± 2.3% | 38.3 ± 8.9% |  | 74.3 ± 4.9% |  |  | Cc1ccc(S(=O)(=O)O)c(C)c1 [m-Xylene-4-sulfonic acid]
 |  |  |  |  |  |  | 97.6 ± 13% | 112 ± 44% | C/C(=C\c1ccccc1)c1ccccc1 [trans-a-Methylstilbene]
